Experimental findings from patent US8481457B2, “Method for the improved use of the production potential of transgenic plants” (priority 2007, dated 2013) are described below.

Type in all cases: in vivo
The subject of test [1] is armyworm (Spodoptera frugiperda). Put plainly: Example 6: Spodoptera frugiperda on Cotton (DP444 BG/RR), dip application, kill in %. The protocol: Individually potted transgenic cotton plants with Lepidoptera resistance and herbicide resistance (cultivar DP444 BG/RR) are treated in 2 replications against the armyworm (Spodoptera frugiperda). Application is by dip application with the respective active compound at the desired application rate.
(§1) After the desired period of time, the kill in % is determined. 100% means that all caterpillars have been killed; 0% means that none of the caterpillars have been killed.

Test [2] deals with larvae of the banded cucumber beetle (Diabrotica balteata). Nature of the test: Example 7: Diabrotica balteata on Maize, drench application, kill in %. The conditions noted are these: 100 ppm. On the procedure:
Pots with in each case 5 transgenic maize plants having Coleoptera, Lepidoptera and/or herbicide resistance (cultivars LH244RR×LH324 and HCL 201CRW2RR2×LH 324) are treated in 2 replications against larvae of the banded cucumber beetle (Diabrotica balteata). Application is carried out by drench application with the respective active compound at the desired application rate.
After the desired period of time, the kill in % is determined. 100% means that all beetle larvae have been killed; 0% means that none of the beetle larvae have been killed.

Test [3] deals with armyworm (Spodoptera frugiperda). Put plainly: Example 9: Spodoptera frugiperda on Maize, dip application, kill in %. The conditions noted are these: 100 ppm. The protocol:
Pots with in each case 5 transgenic maize plants having Coleoptera, Lepidoptera and/or herbicide resistance (cultivars HC33CRW×LH287BTCRW, TR47×TR 7322 BT) are treated in 2 replications against the armyworm (Spodoptera frugiperda). Application is carried out by dip application with the respective active compound at the desired application rate.
as §1

In test [4] the test system is cotton aphid (Aphis gossypii). Nature of the test: Example 4: Aphis gossypii on Cotton (DP444 BG/RR), dip application, kill in %. The conditions noted are these: 0.8 ppm. On the procedure: Individually potted transgenic cotton plants with Lepidoptera resistance and herbicide resistance (cultivar DP444 BG/RR), which are populated by a mixed population of the cotton aphid (Aphis gossypii) are treated by dip application with the respective active compound.
After the desired period of time, the kill in % is determined. 100% means that all aphids have been killed; 0% means that none of the aphids have been killed.

The subject of test [5] is armyworm (Spodoptera frugiperda). Nature of the test: Example 10: Spodoptera frugiperda on Maize (Drench Application), kill in %. The conditions noted are these: 100 ppm. The protocol: Pots with in each case 5 transgenic maize plants having Coleoptera. Lepidoptera and/or herbicide resistance (cultivars HC33CRW×LH287BTCRW, LH332RR×LH324BT, LH24-4RR×LH324 and FR 1064LL×FR 2108) are treated in 2 replications against the armyworm (Spodoptera frugiperda). Application is carried out by drench application with the respective active compound at the desired application rate.
as §1

Test [6] concerns larvae of the cotton bollworm (Heliothis armigera). Nature of the test: Example 5: Heliothis armigera on Cotton (DP444 BG/RR), dip application, kill in %. On the procedure: Individually potted transgenic cotton plants with Lepidoptera resistance and herbicide resistance (cultivar DP444 BG/RR) are treated in 2 replications against larvae of the cotton bollworm (Heliothis armigera). Application is carried out by dip application with the respective active compound at the desired application rate.
as §1

Test [7] has as its system larvae of the beet armyworm (Spodoptera exigua). Nature of the test: Example 8: Spodoptera exigua on Maize, dip application, kill in %. The conditions noted are these: 100 ppm. On the procedure:
Pots with in each case 5 transgenic maize plants having Coleoptera, Lepidoptera and/or herbicide resistance (cultivars LH332RR×LH324BT, LH244RR×LH324, HC33CRW×LH287BTCRW and TR47×TR 7322 BT) are treated in 2 replications against larvae of the beet armyworm (Spodoptera exigua). Application is carried out by dip application with the respective active compound at the desired application rate.
as §1

Each structure is given as a SMILES string.

Regarding `O=C1C=C(N(Cc2ccc(Cl)nc2)CC(F)F)CO1` [Compound I-5, 4-{[(6-chloropyrid-3-yl)methyl](2,2-difluoroethyl)amino}furan-2(5H)-one], the “Kill rate in % after 4d (found)” value in test [1] (20 ppm, after 4 d) is reported as 0%; in test [3], 10%. Further, the “Kill rate in % after 10d (found)” value in test [2] came out at 45%. For the same compound, the “Kill rate in % after 1d (found)” value in test [3] (after 1 d) amounted to 0%; in test [4] (after 1 d), 40%.

Consider `CN(Cc1cnc(Cl)c(F)c1)C1=CC(=O)OC1` [Compound I-6, 4-{[(6-chloro-5-fluoropyrid-3-yl)methyl](methyl)amino}furan-2(5H)-one], for which the “Kill rate in % after 6d (found)” value was determined as 20% in test [1] (100 ppm, after 6 d) and 0% in test [5]. For the same compound, the “Kill rate in % after 4d (found)” value in test [6] (20 ppm), in test [3] and in test [7] was 0% throughout.

`O=C1C=C(N(CCF)Cc2ccc(Cl)nc2)CO1` [Compound I-4, 4-{[(6-chloropyrid-3-yl)methyl](2-fluoroethyl)amino}furan-2(5H)-one]: the “Kill rate in % after 6d (found)” value in test [5] and in test [4] (after 6 d) was 15% each time. In addition, the “Kill rate in % after 4d (found)” value in test [6] (100 ppm), in test [3] and in test [7] was 0% throughout.

For `CN(Cc1ccc(Cl)nc1)C1=CC(=O)OC1` [Compound I-10, 4-{[(6-chloropyrid-3-yl)methyl](methyl)amino}furan-2(5H)-one], the “Kill rate in % after 6d (found)” value in test [5] is recorded as 0%. In test [7], the “Kill rate in % after 4d (found)” value came to 10%.
